Measurements reported in ChEMBL document CHEMBL5506004, “Optimizing drug-like properties of selective butyrylcholinesterase inhibitors for cognitive improvement: Enhancing aqueous solubility by disrupting molecular plane” (Eur J Med Chem, 2024).
Converted amounts (≈) assume the structure as drawn. The source made the active and inactive calls. The rule behind the calls is not given here.

Tests used:
[1] = MRT (infinity) in Sprague-Dawley rat at 10 mg/kg, po measured for 1 to 1440 mins by LC-MS/MS analysis; type: ADME, organism-based; details: in vivo, time 1-1440 min
[2] = AUC (0 to t) in Sprague-Dawley rat at 10 mg/kg, iv measured for 1 to 1440 mins by LC-MS/MS analysis; type: ADME, organism-based; details: in vivo, time 1-1440 min
[3] = target: CYP2D6 (Homo sapiens, UniProt P10635); experiment: Inhibition of CYP2D6 in human liver microsomes at 10 uM in presence of NADPH-regenerating system by LC-MS/MS analysis relative to control; type: ADME, Microsome
CYP2D6, sequence (P10635 whole entry): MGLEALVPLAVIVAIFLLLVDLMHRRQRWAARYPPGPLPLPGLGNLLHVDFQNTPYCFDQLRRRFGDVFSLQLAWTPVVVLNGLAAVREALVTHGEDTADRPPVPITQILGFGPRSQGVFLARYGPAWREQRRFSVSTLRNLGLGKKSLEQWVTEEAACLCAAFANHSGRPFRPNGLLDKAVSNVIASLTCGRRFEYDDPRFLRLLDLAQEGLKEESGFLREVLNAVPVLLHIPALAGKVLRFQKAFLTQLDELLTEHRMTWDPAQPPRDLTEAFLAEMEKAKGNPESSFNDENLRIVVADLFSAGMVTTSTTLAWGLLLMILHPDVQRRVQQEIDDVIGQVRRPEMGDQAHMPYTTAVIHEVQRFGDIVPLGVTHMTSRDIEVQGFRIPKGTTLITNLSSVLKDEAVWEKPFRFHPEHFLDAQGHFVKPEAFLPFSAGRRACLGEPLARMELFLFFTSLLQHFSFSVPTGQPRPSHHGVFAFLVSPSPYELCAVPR

[4] = Half life in Sprague-Dawley rat at 10 mg/kg, po measured for 1 to 1440 mins by LC-MS/MS analysis; type: ADME, organism-based; details: in vivo, time 1-1440 min
[5] = Metabolic stability in human liver microsomes assessed as compound metabolism at 2 uM measured for 60 mins by LC-MS/MS analysis; type: ADME, Microsome; details: read-out: Drug metabolism
[6] = Toxicity in Amyloid beta (1 to 42)-treated ICR mouse assessed as drug tolerance at 10 mg/kg, po administered daily for 12 days; type: organism-based; details: in vivo, 288 h, time 12 day
[7] = Cmax in Sprague-Dawley rat at 10 mg/kg, iv measured for 1 to 1440 mins by LC-MS/MS analysis; type: ADME, organism-based; details: in vivo, time 1-1440 min
[8] = AUC (0 to t) in Sprague-Dawley rat at 10 mg/kg, po measured for 1 to 1440 mins by LC-MS/MS analysis; type: ADME, organism-based; details: in vivo, time 1-1440 min
[9] = Cytotoxicity against human L02 cells assessed as survival rate at 100 uM incubated for 24 hrs by MTT assay relative to control; type: toxicity, cell-based; details: read-out: Survival
[10] = target: Cholinesterase (Equus caballus, UniProt P81908); experiment: Inhibition of horse serum BChE using BTC iodide as substrate preincubated for 5 mins followed by substrate addition measured after 2 mins by Ellman's method
Cholinesterase (Equus caballus, UniProt P81908), sequence (P81908 whole entry): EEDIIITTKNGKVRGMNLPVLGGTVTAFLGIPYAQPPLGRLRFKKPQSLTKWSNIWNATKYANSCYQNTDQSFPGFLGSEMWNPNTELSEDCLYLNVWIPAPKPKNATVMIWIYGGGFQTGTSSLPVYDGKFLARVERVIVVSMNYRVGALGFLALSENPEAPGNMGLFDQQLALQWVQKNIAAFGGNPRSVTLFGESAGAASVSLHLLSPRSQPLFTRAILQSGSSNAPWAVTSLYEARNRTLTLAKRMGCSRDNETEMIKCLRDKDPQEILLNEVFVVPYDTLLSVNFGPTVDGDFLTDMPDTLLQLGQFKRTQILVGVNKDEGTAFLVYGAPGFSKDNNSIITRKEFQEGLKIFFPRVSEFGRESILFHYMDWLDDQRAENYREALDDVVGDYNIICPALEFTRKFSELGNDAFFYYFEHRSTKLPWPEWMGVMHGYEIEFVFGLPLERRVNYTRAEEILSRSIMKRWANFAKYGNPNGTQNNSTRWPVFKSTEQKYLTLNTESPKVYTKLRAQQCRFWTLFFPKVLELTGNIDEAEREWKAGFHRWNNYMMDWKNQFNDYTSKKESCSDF

[11] = tested on: PC-12; experiment: Cytotoxicity against rat PC12 cells assessed as survival rate at 100 uM incubated for 24 hrs by MTT assay relative to control; type: functional; details: read-out: Survival
[12] = target: T1, Cholinesterase (Homo sapiens, UniProt P06276); experiment: Non-competitive inhibition of human BChE
T1 sequence (P06276 whole entry): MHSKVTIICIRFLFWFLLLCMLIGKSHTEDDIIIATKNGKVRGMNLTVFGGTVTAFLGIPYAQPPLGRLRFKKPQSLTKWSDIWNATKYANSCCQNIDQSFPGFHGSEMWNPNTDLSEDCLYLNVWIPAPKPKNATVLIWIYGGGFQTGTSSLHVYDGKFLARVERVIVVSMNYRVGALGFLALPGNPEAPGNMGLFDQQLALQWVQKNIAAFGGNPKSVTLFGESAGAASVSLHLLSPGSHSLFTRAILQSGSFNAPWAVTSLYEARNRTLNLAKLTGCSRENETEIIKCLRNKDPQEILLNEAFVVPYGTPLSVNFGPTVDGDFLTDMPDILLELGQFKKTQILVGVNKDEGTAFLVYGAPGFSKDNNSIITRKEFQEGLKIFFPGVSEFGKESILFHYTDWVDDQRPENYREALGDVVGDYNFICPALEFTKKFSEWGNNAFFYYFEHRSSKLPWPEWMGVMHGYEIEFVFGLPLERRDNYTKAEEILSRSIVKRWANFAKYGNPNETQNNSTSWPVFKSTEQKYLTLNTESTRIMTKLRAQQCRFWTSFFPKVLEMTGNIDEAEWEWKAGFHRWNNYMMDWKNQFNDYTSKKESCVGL

[13] = Tmax in Sprague-Dawley rat at 10 mg/kg, po measured for 1 to 1440 mins by LC-MS/MS analysis; type: ADME, organism-based; details: in vivo, time 1-1440 min
[14] = MRT (infinity) in Sprague-Dawley rat at 10 mg/kg, iv measured for 1 to 1440 mins by LC-MS/MS analysis; type: ADME, organism-based; details: in vivo, time 1-1440 min
[15] = target: Amyloid-beta precursor protein (Mus musculus) (UniProt P12023); experiment: In vivo inhibition of Amyloid beta (1 to 42) self-aggregation in brain of Amyloid beta (1 to 42)-treated ICR mouse at 10 mg/kg, po administered daily for 12 days; type: functional, organism-based; details: time 12.0 day
Amyloid-beta precursor protein (Mus musculus), sequence (P12023 whole entry): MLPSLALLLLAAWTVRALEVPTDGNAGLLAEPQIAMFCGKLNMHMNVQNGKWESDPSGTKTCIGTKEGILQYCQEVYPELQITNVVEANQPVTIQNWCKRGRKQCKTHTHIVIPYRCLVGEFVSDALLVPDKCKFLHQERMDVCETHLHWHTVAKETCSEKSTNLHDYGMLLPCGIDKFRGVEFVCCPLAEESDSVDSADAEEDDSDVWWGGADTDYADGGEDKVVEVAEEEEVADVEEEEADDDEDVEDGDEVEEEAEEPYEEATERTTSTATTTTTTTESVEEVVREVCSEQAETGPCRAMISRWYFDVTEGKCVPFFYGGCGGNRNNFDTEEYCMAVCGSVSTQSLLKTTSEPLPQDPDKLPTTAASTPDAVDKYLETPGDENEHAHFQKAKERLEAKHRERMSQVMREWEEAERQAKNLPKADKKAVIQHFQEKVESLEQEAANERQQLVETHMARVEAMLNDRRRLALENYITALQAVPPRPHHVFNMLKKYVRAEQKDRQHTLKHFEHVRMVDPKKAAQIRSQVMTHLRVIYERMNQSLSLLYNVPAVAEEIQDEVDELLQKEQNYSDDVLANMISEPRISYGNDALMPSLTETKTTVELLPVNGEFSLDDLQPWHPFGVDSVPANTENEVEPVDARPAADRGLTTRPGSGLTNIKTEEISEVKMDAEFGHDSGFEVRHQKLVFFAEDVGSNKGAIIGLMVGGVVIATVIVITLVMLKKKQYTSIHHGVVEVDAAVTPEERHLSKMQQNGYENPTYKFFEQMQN

[16] = Toxicity in Amyloid beta (1 to 42)-treated ICR mouse assessed as body weight change at 10 mg/kg, po administered daily for 12 days; type: organism-based; details: in vivo, 288 h, time 12 day
[17] = Ratio of AUC (0 to t) in brain to plasma in ICR mouse at 10 mg/kg, po measured for 10 to 480 mins by spectroscopy; type: ADME, organism-based; details: time 10-480 min
[18] = AUC (0 to infinity) in Sprague-Dawley rat at 10 mg/kg, iv measured for 1 to 1440 mins by LC-MS/MS analysis; type: ADME, organism-based; details: in vivo, time 1-1440 min
[19] = tested on: Mus musculus; experiment: Downregulation of Amyloid beta (1 to 42) level in brain of Amyloid beta (1 to 42)-treated ICR mouse at 10 mg/kg, po administered daily for 12 days; type: functional, organism-based; details: time 12.0 day
[20] = tested on: HT-22; experiment: Cytotoxicity against mouse HT-22 cells assessed as survival rate at 100 uM incubated for 24 hrs by MTT assay relative to control; type: functional; details: read-out: Survival
[21] = Oral bioavailability in Sprague-Dawley rat at 10 mg/kg measured for 1 to 1440 mins by LC-MS/MS analysis; type: ADME, organism-based; details: in vivo, time 1-1440 min
[22] = Ratio of Cmax in brain to plasma in ICR mouse at 10 mg/kg, po measured for 10 to 480 mins by spectroscopy; type: ADME, organism-based; details: time 10-480 min
[23] = target: T1, Cholinesterase; experiment: Inhibition of human BChE using BTC iodide as substrate preincubated for 5 mins followed by substrate addition measured after 2 mins by Ellman's method
[24] = tested on: Mus musculus; experiment: Cognitive enhancing effect in Amyloid beta (1 to 42)-treated ICR mouse assessed as reduction in trajectory uncertainty at 10 mg/kg, po administered daily measured after 7 to 12 days by Morris water maze test; type: functional, organism-based; details: time 7-12 day
[25] = target: CYP2C19 (Homo sapiens, UniProt P33261); experiment: Inhibition of CYP2C19 in human liver microsomes at 10 uM in presence of NADPH-regenerating system by LC-MS/MS analysis relative to control; type: ADME, Microsome
CYP2C19, sequence (P33261 whole entry): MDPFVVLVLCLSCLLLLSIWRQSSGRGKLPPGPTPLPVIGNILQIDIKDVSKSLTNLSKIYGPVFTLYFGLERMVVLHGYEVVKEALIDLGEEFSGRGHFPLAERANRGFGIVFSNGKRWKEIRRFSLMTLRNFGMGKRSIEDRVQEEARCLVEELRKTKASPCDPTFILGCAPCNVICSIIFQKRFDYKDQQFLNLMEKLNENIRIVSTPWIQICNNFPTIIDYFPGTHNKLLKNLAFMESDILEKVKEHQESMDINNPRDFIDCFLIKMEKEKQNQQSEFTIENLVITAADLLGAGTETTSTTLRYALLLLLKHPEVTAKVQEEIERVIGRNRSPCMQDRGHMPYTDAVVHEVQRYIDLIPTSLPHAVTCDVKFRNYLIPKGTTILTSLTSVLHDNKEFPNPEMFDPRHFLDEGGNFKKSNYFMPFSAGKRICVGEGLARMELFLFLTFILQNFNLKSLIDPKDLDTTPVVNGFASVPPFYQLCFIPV

[26] = AUC (0 to t) in plasma of ICR mouse at 10 mg/kg, po measured for 10 to 480 mins by spectroscopy; type: ADME, organism-based; details: time 10-480 min
[27] = AUC (0 to infinity) in Sprague-Dawley rat at 10 mg/kg, po measured for 1 to 1440 mins by LC-MS/MS analysis; type: ADME, organism-based; details: in vivo, time 1-1440 min
[28] = Cmax in brain of ICR mouse at 10 mg/kg, po measured for 10 to 480 mins by spectroscopy; type: ADME, organism-based; details: time 10-480 min
[29] = tested on: BV-2; experiment: Cytotoxicity against mouse BV-2 cells assessed as survival rate at 100 uM incubated for 24 hrs by MTT assay relative to control; type: functional; details: read-out: Survival
[30] = Acute toxicity in ICR mouse assessed as animal growth at 1 g/kg, IG; details: in vivo, po, 1000 mg/kg
[31] = tested on: PC-12; experiment: Neuroprotective activity in rat PC12 cells assessed as cell viability pretreated for 2 hrs followed by H2O2 addition measured after 24 hrs by MTT assay; type: functional, cell-based; details: time 26.0 hrs
[32] = target: CYP2C9 (Homo sapiens, UniProt P11712); experiment: Inhibition of CYP2C9 in human liver microsomes at 10 uM in presence of NADPH-regenerating system by LC-MS/MS analysis relative to control; type: ADME, Microsome
CYP2C9, sequence (P11712 whole entry): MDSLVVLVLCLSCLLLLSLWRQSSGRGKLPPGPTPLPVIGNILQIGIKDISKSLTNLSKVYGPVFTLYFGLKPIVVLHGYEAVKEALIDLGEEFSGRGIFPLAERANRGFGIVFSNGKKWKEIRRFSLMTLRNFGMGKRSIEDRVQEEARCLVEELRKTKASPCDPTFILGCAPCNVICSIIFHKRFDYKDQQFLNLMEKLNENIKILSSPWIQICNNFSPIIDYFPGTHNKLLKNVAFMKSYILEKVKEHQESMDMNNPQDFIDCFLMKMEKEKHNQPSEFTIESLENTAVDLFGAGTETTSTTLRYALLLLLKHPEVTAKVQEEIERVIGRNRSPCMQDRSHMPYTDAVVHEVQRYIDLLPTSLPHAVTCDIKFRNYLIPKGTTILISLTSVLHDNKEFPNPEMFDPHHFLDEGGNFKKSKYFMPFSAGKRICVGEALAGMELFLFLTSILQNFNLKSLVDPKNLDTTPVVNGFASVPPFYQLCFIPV

[33] = Solubility of compound in FaSSIF incubated for 24 hrs by HPLC analysis; type: ADME
[34] = Cmax in Sprague-Dawley rat at 10 mg/kg, po measured for 1 to 1440 mins by LC-MS/MS analysis; type: ADME, organism-based; details: Sprague-Dawley, in vivo, time 1-1440 min, read-out: Cmax
[35] = tested on: Mus musculus; experiment: Cognitive enhancing effect in Amyloid beta (1 to 42)-treated ICR mouse assessed as shorter arrival time at 10 mg/kg, po administered daily measured after 7 to 12 days by Morris water maze test; type: functional, organism-based; details: time 7-12 day
[36] = tested on: SH-SY5Y; experiment: Neuroprotective activity against amyloid beta (1 to 42)-induced neuronal death in human SH-SY5Y cells assessed as cell viability pretreated for 1 hr followed by amyloid beta (1 to 42) addition measured after 24 hrs by MTT assay; type: functional, cell-based; details: dose 1-10 µM, time 25.0 hrs
[37] = Permeability of compound at 50 ug/ml incubated for 18 hrs by PAMPA; type: ADME; details: dose 50 µg/ml, read-out: permeability
[38] = Cmax in plasma of ICR mouse at 10 mg/kg, po measured for 10 to 480 mins by spectroscopy; type: ADME, organism-based; details: time 10-480 min

With `Nc1nonc1-c1nc2ccccc2n1CC(=O)Nc1ccc(CCN2CCOCC2)cc1` as the molecule, how does the MRT inf [1] read?
Its MRT inf is 9.67 h.

What about the AUC(0-t) [2] of the same molecule?
The AUC(0-t) was 3570 ng·h/mL.

And the inhibition at 10 µM [3]?
Its inhibition at 10 µM is 0.89%.

And the half-life [4]?
The half-life was 6.77 h.

And the metabolised at 1 h, 2 µM [5]?
The metabolised at 1 h, 2 µM was < 15%.

And the Activity [6]?
The Activity was “Non-Toxic”.

What about the Cmax [7] of the same molecule?
Its Cmax is 4610 ng/mL.

What about the AUC(0-t) [8] of the same molecule?
The AUC(0-t) was 1440 ng·h/mL.

What about the viability at 24 h, 100 µM [9] of the same molecule?
Its viability at 24 h, 100 µM is 87.1%.

And the IC50 [10]?
The IC50 was 11.3 nM.

What about the viability at 100 µM [11] of the same molecule?
The viability at 100 µM was 75.5%.

What about the inhibition [12] of the same molecule?
The inhibition was “Active”.

What about the Tmax [13] of the same molecule?
The Tmax was 0.389 h.

What about the MRT inf [14] of the same molecule?
The MRT inf was 2.57 h.

What about the inhibition [15] of the same molecule?
Its inhibition is “inactive”.

What about the Activity [16] of the same molecule?
Its Activity is “Non-Toxic”.

And the Kp [17]?
Its Kp is 0.32.

What about the AUC(0-inf) [18] of the same molecule?
Its AUC(0-inf) is 3590 ng·h/mL.

What about the Activity [19] of the same molecule?
Its Activity is “Active”.

And the viability at 100 µM [20]?
The viability at 100 µM was 80.7%.

What about the bioavailability [21] of the same molecule?
Its bioavailability is 48.2%.

What about the Kp [22] of the same molecule?
Its Kp is 0.15.

What about the IC50 [23] of the same molecule?
The IC50 was 48.1 nM.

What about the Activity [24] of the same molecule?
The Activity was “Active”.

And the inhibition at 10 µM [25]?
The inhibition at 10 µM was 9.19%.

And the AUC(0-t) [26]?
The AUC(0-t) was 826 ng·h/mL.

And the AUC(0-inf) [27]?
The AUC(0-inf) was 1730 ng·h/mL.

And the Cmax [28]?
Its Cmax is 209 ng/mL.

And the viability at 100 µM [29]?
The viability at 100 µM was 66.5%.

What about the Activity [30] of the same molecule?
Its Activity is “Non-Toxic”.

What about the Activity [31] of the same molecule?
Its Activity is “Dose-Dependent Effect”.

What about the inhibition at 10 µM [32] of the same molecule?
The inhibition at 10 µM was 10.9%.

What about the solubility at 24 h [33] of the same molecule?
Its solubility at 24 h is 3.28 mM (≈ 1470 µg/mL).

And the Cmax [34]?
The Cmax was 1060 ng/mL.

What about the Activity [35] of the same molecule?
The Activity was “Active”.

And the Activity [36]?
Its Activity is “Dose-Dependent Effect”.

And the Papp at 18 h, 50 ug/ml [37]?
The Papp at 18 h, 50 ug/ml was 6.64 ×10⁻⁶ cm/s.

And the Cmax [38]?
The Cmax was 1390 ng/mL.
